From PubChem BioAssay AID248 (DTP/NCI, 2004)
“And” between values parts separate entries of the source, which are not always exact repeats. Equal entries are not always repeated. Inconclusive results and toxic doses are left out. Rule as the data show it: active = T/C of 150% or more; inactive = T/C below 125%.

Tested on: L1210 leukemia ip in BDF1 mice, survival T/C
Experiment: NCI In Vivo Anticancer Drug Screen. Data for tumor model L1210 Leukemia (intraperitoneal) in B6D2F1 (BDF1) mice
Settings: endpoint: mean survival time, higher = longer survival
Outline: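 Each compound was tested against a transplantable tumor grown in mice. The endpoint was survival, with treated animals benchmarked against vehicle controls as a simple ratio.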

[1] = dose: 100.0 mg/kg/injection, schedule: Q04DX002 (ip), vehicle: saline with Tween-80
[2] = dose: 200.0 mg/kg/injection, schedule: Q04DX002 (ip), vehicle: saline with Tween-80
[3] = dose: 400.0 mg/kg/injection, schedule: Q04DX002 (ip), vehicle: saline with Tween-80
[4] = dose: 100.0 mg/kg/injection, schedule: Q04DX003 (ip), vehicle: saline
[5] = dose: 200.0 mg/kg/injection, schedule: Q04DX003 (ip), vehicle: saline
[6] = dose: 100.0 mg/kg/injection, schedule: Q01DX001 (ip), vehicle: carboxymethylcellulose (CMC)
[7] = dose: 200.0 mg/kg/injection, schedule: Q01DX001 (ip), vehicle: carboxymethylcellulose (CMC)
[8] = dose: 400.0 mg/kg/injection, schedule: Q01DX001 (ip), vehicle: carboxymethylcellulose (CMC)
[9] = dose: 100.0 mg/kg/injection, schedule: Q01DX009 (ip), vehicle: saline with Tween-80
[10] = dose: 200.0 mg/kg/injection, schedule: Q01DX009 (ip), vehicle: saline with Tween-80
[11] = dose: 100.0 mg/kg/injection, schedule: Q01DX001 (ip), vehicle: saline
[12] = dose: 200.0 mg/kg/injection, schedule: Q01DX001 (ip), vehicle: saline
[13] = dose: 400.0 mg/kg/injection, schedule: Q01DX001 (ip), vehicle: saline

Measured: T/C

CC(=O)OC1CCC2(C)C3CCC4(C)C(OC(=O)c5ccccc5)CCC4C3C3C(=O)OC32C1 (stereo unspecified)
inactive: dose: 100.0 mg/kg/injection, schedule: Q04DX003 (ip), vehicle: Klucel (hydroxypropylcellulose) (HPC) 95 % of control | dose: 200.0 mg/kg/injection, schedule: Q04DX003 (ip), vehicle: Klucel (hydroxypropylcellulose) (HPC) 95 % of control | dose: 400.0 mg/kg/injection, schedule: Q04DX003 (ip), vehicle: Klucel (hydroxypropylcellulose) (HPC) 95 % of control

COc1cc(C(=O)NC(=S)Nc2ccc3ccccc3c2)cc(OC)c1OC
inactive: [1] 91 % of control | [2] 97 % of control | [3] 91 % of control

Nc1cc(Cl)cc(Cl)c1C(=O)O
inactive: dose: 50.0 mg/kg/injection, schedule: Q01DX009 (ip), vehicle: other 100 % of control | dose: 100.0 mg/kg/injection, schedule: Q01DX009 (ip), vehicle: other 94 % of control | [4] 90 % of control | [5] 90 % of control

C=CCOC(=O)C(C)(O)C(Cl)c1ccccc1 (stereo unspecified)
inactive: dose: 100.0 mg/kg/injection, schedule: Q04DX002 (ip), vehicle: saline 103 % of control | dose: 200.0 mg/kg/injection, schedule: Q04DX002 (ip), vehicle: saline 100 % of control | dose: 400.0 mg/kg/injection, schedule: Q04DX002 (ip), vehicle: saline 100 % of control

CCSC(SCC)C(OC(=O)c1ccccc1)C(OC(=O)c1ccccc1)C(COC(=O)c1ccccc1)OC(=O)c1ccccc1 (stereo unspecified)
inactive: [6] 102 % of control | [7] 102 % of control | [8] 96 % of control

Cc1ccc(C)c(N=Nc2ccc(O)cc2)c1
inactive: [9] 94 % of control | [10] 93 % of control

O=C(Nc1cccc(C(=O)Nc2cccc(C3=NCCN3)c2)c1)Nc1cccc(C(=O)Nc2cccc(C3=NCCN3)c2)c1
inactive: dose: 15.0 mg/kg/injection, schedule: Q01DX Z (ip), vehicle: methylcellulose (MC) 96 % of control | dose: 30.0 mg/kg/injection, schedule: Q01DX Z (ip), vehicle: methylcellulose (MC) 96 % of control | dose: 60.0 mg/kg/injection, schedule: Q01DX Z (ip), vehicle: methylcellulose (MC) 94 % of control | dose: 120.0 mg/kg/injection, schedule: Q01DX Z (ip), vehicle: methylcellulose (MC) 98 % of control | dose: 125.0 mg/kg/injection, schedule: Q01DX Z (ip), vehicle: carboxymethylcellulose (CMC) 110 % of control | dose: 250.0 mg/kg/injection, schedule: Q01DX Z (ip), vehicle: carboxymethylcellulose (CMC) 105 % of control | dose: 500.0 mg/kg/injection, schedule: Q01DX Z (ip), vehicle: carboxymethylcellulose (CMC) 96 % of control

O=NN(CC(F)(F)F)C(=O)NCC(F)(F)F
inactive: dose: 8.0 mg/kg/injection, schedule: Q01DX001 (ip), vehicle: carboxymethylcellulose (CMC) 113 % of control | dose: 16.0 mg/kg/injection, schedule: Q01DX001 (ip), vehicle: carboxymethylcellulose (CMC) 113 % of control | dose: 31.0 mg/kg/injection, schedule: Q01DX001 (ip), vehicle: carboxymethylcellulose (CMC) 113 % of control | dose: 62.0 mg/kg/injection, schedule: Q01DX001 (ip), vehicle: carboxymethylcellulose (CMC) 113 % of control | dose: 125.0 mg/kg/injection, schedule: Q01DX001 (ip), vehicle: carboxymethylcellulose (CMC) 113 % of control | dose: 187.0 mg/kg/injection, schedule: Q01DX001 (ip), vehicle: carboxymethylcellulose (CMC) 112 % of control | dose: 250.0 mg/kg/injection, schedule: Q01DX001 (ip), vehicle: carboxymethylcellulose (CMC) 107 % of control | dose: 375.0 mg/kg/injection, schedule: Q01DX001 (ip), vehicle: carboxymethylcellulose (CMC) 113 % of control | dose: 500.0 mg/kg/injection, schedule: Q01DX001 (ip), vehicle: carboxymethylcellulose (CMC) 118 % of control

CCOC(=O)CCCl
inactive: dose: 75.0 mg/kg/injection, schedule: Q01DX009 (ip), vehicle: Klucel (hydroxypropylcellulose) (HPC) 94 % of control | dose: 75.0 mg/kg/injection, schedule: Q04DX003 (ip), vehicle: saline 117 % of control | dose: 150.0 mg/kg/injection, schedule: Q01DX009 (ip), vehicle: Klucel (hydroxypropylcellulose) (HPC) 96 % of control | dose: 300.0 mg/kg/injection, schedule: Q01DX009 (ip), vehicle: Klucel (hydroxypropylcellulose) (HPC) 97 % of control | dose: 300.0 mg/kg/injection, schedule: Q04DX003 (ip), vehicle: saline 97 % of control

COc1ccc(C)cc1NC(=O)OCCOc1ccc(NC(C)=O)cc1
inactive: dose: 50.0 mg/kg/injection, schedule: Q01DX009 (ip), vehicle: saline with Tween-80 98 % of control | [9] 95 % of control | [10] 95 % of control

CN(C)c1ccc(N=Nc2cc(Cl)cc(Cl)c2)cc1
inactive: [6] 89 % of control | [7] 91 % of control

CC(=O)Nc1ncnc2c1c(C(N)=O)cn2C1OC(COC(C)=O)C(OC(C)=O)C1OC(C)=O (stereo unspecified)
inactive: dose: 100.0 mg/kg/injection, schedule: Q01DX001 (ip), vehicle: water 102 % of control

Cc1cc(C)c(S(=O)(=O)N=[N+]=[N-])c(C)c1
inactive: [11] 101 % of control | [12] 103 % of control | [13] 97 % of control

CCOC(=O)N1C2C=CC(C2)N1C(=O)OCC
inactive: dose: 100.0 mg/kg/injection, schedule: Q04DX002 (sc), vehicle: olive oil, sesame oil, peanut oil 94 % of control | dose: 200.0 mg/kg/injection, schedule: Q04DX002 (sc), vehicle: olive oil, sesame oil, peanut oil 102 % of control | dose: 400.0 mg/kg/injection, schedule: Q04DX002 (sc), vehicle: olive oil, sesame oil, peanut oil 97 % of control

CCCCC(F)C(Br)C(=O)O (stereo unspecified)
inactive: [1] 97 % of control | [2] 87 % of control | [3] 93 % of control

COC(=O)c1ccc(N=Nc2ncc(CC(NC(C)=O)C(=O)OC)[nH]2)cc1 (stereo unspecified)
inactive: dose: 100.0 mg/kg/injection, schedule: Q01DX001 (ip), vehicle: saline with Tween-80 93 % of control | dose: 200.0 mg/kg/injection, schedule: Q01DX001 (ip), vehicle: saline with Tween-80 96 % of control | dose: 400.0 mg/kg/injection, schedule: Q01DX001 (ip), vehicle: saline with Tween-80 100 % of control

O=C1N(c2ccccc2)P(Cl)(Cl)(Cl)N1c1ccccc1
inactive: dose: 100.0 mg/kg/injection, schedule: Q04DX002 (ip), vehicle: Klucel (hydroxypropylcellulose) (HPC) 93 % of control | dose: 200.0 mg/kg/injection, schedule: Q04DX002 (ip), vehicle: Klucel (hydroxypropylcellulose) (HPC) 110 % of control | dose: 400.0 mg/kg/injection, schedule: Q04DX002 (ip), vehicle: Klucel (hydroxypropylcellulose) (HPC) 93 % of control

Clc1ccccc1/C=C/c1ccccn1
inactive: dose: 6.25 mg/kg/injection, schedule: Q04DX002 (ip), vehicle: DMSO 102 % of control | dose: 12.5 mg/kg/injection, schedule: Q04DX002 (ip), vehicle: DMSO 98 % of control | dose: 25.0 mg/kg/injection, schedule: Q04DX002 (ip), vehicle: DMSO 109 % of control | dose: 100.0 mg/kg/injection, schedule: Q04DX002 (ip), vehicle: DMSO 94 % of control

[Cl][Pt+2][Cl].[NH-]c1ccc([N+](=O)[O-])cc1.[NH-]c1ccc([N+](=O)[O-])cc1
inactive: [4] 102 % of control | [5] 113 % of control

C[Si](C)O[Si](C)C
inactive: [4] 91 % of control | [5] 101 % of control | dose: 400.0 mg/kg/injection, schedule: Q04DX003 (ip), vehicle: saline 101 % of control

O=C1CCC=Cc2c(O)ccc(O)c21
inactive: [6] 91 % of control | [7] 93 % of control | [8] 96 % of control

CC(=O)OC1COC(n2cnc3c(=O)[nH]cnc32)C(OC(C)=O)C1OC(C)=O (stereo unspecified)
inactive: dose: 50.0 mg/kg/injection, schedule: Q01DX001 (ip), vehicle: saline 97 % of control | [11] 97 % of control and 115 % of control and 101 % of control | [12] 86 % of control and 109 % of control and 103 % of control | [13] 95 % of control
